Results as given in patent US9963444B2, “N-acylethanolamine hydrolyzing acid amidase (NAAA) inhibitors and their use thereof” (Northeastern University, priority 2014, dated 2018).
Read-outs that look alike come from different tables or passages of the source.

Molecular target: hNAAA (Homo sapiens (Human), UniProt Q02083)
Assay: Fluorescence-based NAAA inhibition assay with fluorogenic substrate PAMCA;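 further: compound preincubated 15 min at room temperature with hNAAA, then PAMCA added at 5 µM, reacted 120 min at 37 °C, AMC release read by fluorescence (ex 360, em 460 nm)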
[1] = read-out: NAAA Inhibition IC50 μM, purified hNAAA, PAMCA 5 μM, pH 4.5

Sequence of hNAAA (Q02083 29-125): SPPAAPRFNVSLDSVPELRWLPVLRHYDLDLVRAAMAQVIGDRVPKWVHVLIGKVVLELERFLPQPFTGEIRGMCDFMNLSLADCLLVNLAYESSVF
Sequence of hNAAA (Q02083 126-359): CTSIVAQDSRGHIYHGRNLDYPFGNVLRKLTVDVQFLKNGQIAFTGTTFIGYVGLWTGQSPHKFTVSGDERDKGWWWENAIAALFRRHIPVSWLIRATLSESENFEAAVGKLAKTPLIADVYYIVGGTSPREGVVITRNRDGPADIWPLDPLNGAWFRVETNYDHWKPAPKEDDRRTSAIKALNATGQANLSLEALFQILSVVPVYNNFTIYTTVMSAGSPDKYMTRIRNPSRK
Method: For three point concentration inhibition assays with hNAAA the following procedure is used. […] These samples are allowed to incubate for 15 min at room temperature and then 10 μL of a PAMCA stock solution in DMSO (final PAMCA concentration [5 μM]) was added. After 5 minutes of agitation on a shaking plate, the reaction is allowed to proceed at 37° C. for 120 minutes, with fluorescence readings taken every 10 minutes at a wavelength of 460 nm (using an excitation wavelength of 360 nm) on a Synergy HT Plate Reader using Gen5 software from Bio-Tek. The enzyme activity is calculated by converting the relative fluorescence units to AMC formed, using a standard curve of AMC. […] The assay procedure used is the same as the three point assay. […] After 5 minutes of agitation on a shaking plate, the reaction is allowed to proceed at 37° C. for 120 minutes Inhibition constants are calculated using pro Fit software (Quantum Soft, Uetikon am See, Switzerland) and a Levenberg-Marquardt algorithm.
For three point concentration inhibition assays with hNAAA the following procedure is used. […] These samples are allowed to incubate for 15 min at room temperature and then 10 μL of a PAMCA stock solution in DMSO (final PAMCA concentration [5 μM]) was added. After 5 minutes of agitation on a shaking plate, the reaction is allowed to proceed at 37° C. for 120 minutes, with fluorescence readings taken every 10 minutes at a wavelength of 460 nm (using an excitation wavelength of 360 nm) on a Synergy HT Plate Reader using Gen5 software from Bio-Tek. The enzyme activity is calculated by converting the relative fluorescence units to AMC formed, using a standard curve of AMC.
The assay procedure used is the same as the three point assay. […] After 5 minutes of agitation on a shaking plate, the reaction is allowed to proceed at 37° C. for 120 minutes. Inhibition constants are calculated using pro Fit software (Quantum Soft, Uetikon am See, Switzerland) and a Levenberg-Marquardt algorithm.

Structure (SMILES): CN(Cc1ccc(-c2ccccc2)cc1)[C@H]1C[C@@H](N=C=S)C1 [Example 54, (1S,3S)—N-([1,1′-biphenyl]-4-ylmethyl)-3-isothiocyanato-N-methylcyclobutan-1-amine]
- IC50: > 1 µM

Structure (SMILES): CN(Cc1ccc(-c2ccc3c(c2)OCO3)cc1)C1CC(N=C=S)C1 [Example 55, (1R,3R)—N-(4-(benzo[d][1,3]dioxol-5-yl)benzyl)-3-isothiocyanato-N-methylcyclobutan-1-amine]
- IC50 [1]: > 1 µM

Structure (SMILES): CCN(Cc1ccc(-c2ccc3c(c2)OCO3)cc1)C1CC(N=C=S)C1 [Example 56, (1R,3R)—N-(4-(benzo[d][1,3]dioxol-5-yl)benzyl)-N-ethyl-3-isothiocyanatocyclobutan-1-amine]
- IC50 [1]: 0.11 to 1 µM

Structure (SMILES): S=C=NC[C@H]1C[C@@H](OCc2ccc(-c3ccccc3)cc2)C1 [Example 57, 4-(((1S,3S)-3-(isothiocyanatomethyl)cyclobutoxy)methyl)-1,1′-biphenyl]
- IC50: 0.11 to 1 µM

Structure (SMILES): FC(F)(F)c1cccc(-c2ccc(COC3CCCC(N=C=S)C3)cc2)c1 (stereo not shown) [Example 58, 4′-(((3-Isothiocyanatocyclohexyl)oxy)methyl)-3-(trifluoromethyl)-1,1′-biphenyl]
- IC50 [1]: > 1 µM

Structure (SMILES): COc1ccc(-c2ccc(COC3CCC(N=C=S)CC3)cc2)cc1F (stereo not shown) [Example 59, 3-Fluoro-4′-((((1r,4r)-4-isothiocyanatocyclohexyl)oxy)methyl)-4-methoxy-1,1′-biphenyl]
- IC50 [1]: 0.11 to 1 µM

Structure (SMILES): S=C=N[C@@H]1CC[C@@H](OCc2ccc(Br)cc2)C1 [Example 60, 1-Bromo-4-((((1R,3R)-3-isothiocyanatocyclopentyl)oxy)methyl)benzene]
- IC50 [1]: > 1 µM

Structure (SMILES): FC(F)(F)c1cccc(-c2ccc(CO[C@H]3Cc4ccccc4[C@H]3N=C=S)cc2)c1 [Example 61, (1R,2S)-1-isothiocyanato-2-((3′-(trifluoromethyl)-[1,1′-biphenyl]-4-yl)methoxy)-2,3-dihydro-1H-indene]
- IC50 [1]: > 1 µM

Structure (SMILES): COc1ccc(-c2ccc(CO[C@@H]3Cc4ccccc4[C@@H]3N=C=S)cc2)cc1F [Example 62, (1S,2R)-2-((3′-fluoro-4′-methoxy-[1,1′-biphenyl]-4-yl)methoxy)-1-isothiocyanato-2,3-dihydro-1H-indene]
- IC50 [1]: > 1 µM

Structure (SMILES): COc1ccc(-c2ccc(COC3CN(C#N)C3)cc2)cc1 [Example 63, 3-((4′-Methoxy-[1,1′-biphenyl]-4-yl)methoxy)azetidine-1-carbonitrile]
- IC50: 0.01 to 0.1 µM

Structure (SMILES): N#CN1CC(OCc2ccc(-c3ccccc3)cc2)C1 [Example 64, 3-([1,1′-Biphenyl]-4-ylmethoxy)azetidine-1-carbonitrile]
- IC50: 0.01 to 0.1 µM

Structure (SMILES): COc1ccc(-c2ccc(COC3CN(C#N)C3)cc2)c(OC)c1 [Example 65, 3-((2′,4′-Dimethoxy-[1,1′-biphenyl]-4-yl)methoxy)azetidine-1-carbonitrile]
- IC50: 0.01 to 0.1 µM

Structure (SMILES): N#CN1CC(OCc2cccc(-c3ccccc3)c2)C1 [Example 66, 3-([1,1′-Biphenyl]-3-ylmethoxy)azetidine-1-carbonitrile]
- IC50: 0.01 to 0.1 µM

Structure (SMILES): COc1cccc(-c2ccc(COC3CN(C#N)C3)cc2)c1 [Example 67, 3-((3′-Methoxy-[1,1′-biphenyl]-4-yl)methoxy)azetidine-1-carbonitrile]
- IC50: 0.01 to 0.1 µM

Structure (SMILES): COc1ccc(OC)c(-c2ccc(COC3CN(C#N)C3)cc2)c1 [Example 68, 3-((2′,5′-Dimethoxy-[1,1′-biphenyl]-4-yl)methoxy)azetidine-1-carbonitrile]
- IC50: 0.01 to 0.1 µM

Structure (SMILES): COc1cccc(-c2ccc(COC3CN(C#N)C3)cc2)c1OC [Example 69, 3-((2′,3′-Dimethoxy-[1,1′-biphenyl]-4-yl)methoxy)azetidine-1-carbonitrile]
- IC50: 0.01 to 0.1 µM

Structure (SMILES): N#CN1CC(OCc2ccc(-c3cccc(C(F)(F)F)c3)cc2)C1 [Example 70, 3-((3′-(Trifluoromethyl)-[1,1′-biphenyl]-4-yl)methoxy)azetidine-1-carbonitrile]
- IC50: 0.01 to 0.1 µM

Structure (SMILES): N#CN1CC(OCc2ccc(-c3cc(C(F)(F)F)cc(C(F)(F)F)c3)cc2)C1 [Example 71, 3-((3′,5′-Bis(trifluoromethyl)-[1,1′-biphenyl]-4-yl)methoxy)azetidine-1-carbonitrile]
- IC50: 0.01 to 0.1 µM

Structure (SMILES): N#CN1CC(OCc2ccc(-c3cccnc3)cc2)C1 [Example 72, 3-((4-(Pyridin-3-yl)benzyl)oxy)azetidine-1-carbonitrile]
- IC50: 0.01 to 0.1 µM

Structure (SMILES): COc1ccc(-c2ccc(COC3CN(C#N)C3)cc2)cn1 [Example 73, 3-((4-(6-Methoxypyridin-3-yl)benzyl)oxy)azetidine-1-carbonitrile]
- IC50: 0.01 to 0.1 µM

Structure (SMILES): COc1ncccc1-c1ccc(COC2CN(C#N)C2)cc1 [Example 74, 3-((4-(2-Methoxypyridin-3-yl)benzyl)oxy)azetidine-1-carbonitrile]
- IC50: 0.01 to 0.1 µM

Structure (SMILES): COc1ccccc1-c1ccc(COC2CN(C#N)C2)cc1 [Example 75, 3-((2′-Methoxy-[1,1′-biphenyl]-4-yl)methoxy)azetidine-1-carbonitrile]
- IC50: 0.01 to 0.1 µM

Structure (SMILES): Cc1ccc(-c2ccc(COC3CN(C#N)C3)cc2)cc1 [Example 76, 3-((4′-Methyl-[1,1′-biphenyl]-4-yl)methoxy)azetidine-1-carbonitrile]
- IC50: 0.01 to 0.1 µM

Structure (SMILES): N#CN1CC(OCc2ccc(-c3ccc(F)cc3)cc2)C1 [Example 77, 3-((4′-Fluoro-[1,1′-biphenyl]-4-yl)methoxy)azetidine-1-carbonitrile]
- IC50: 0.01 to 0.1 µM

Structure (SMILES): COc1cccc(-c2ccc(COC3CN(C#N)C3)c(F)c2)c1 [Example 78, 3-((3-Fluoro-3′-methoxy-[1,1′-biphenyl]-4-yl)methoxy)azetidine-1-carbonitrile]
- IC50: 0.01 to 0.1 µM

Structure (SMILES): COc1cccc(-c2ccc(COC3CN(C#N)C3)c(C(F)(F)F)c2)c1 [Example 79, 3-((3′-Methoxy-3-(trifluoromethyl)-[1,1′-biphenyl]-4-yl)methoxy)azetidine-1-carbonitrile]
- IC50: 0.01 to 0.1 µM

Structure (SMILES): COc1cccc(-c2ccc(COC3CN(C#N)C3)c(OC)c2)c1 [Example 80, 3-((3,3′-Dimethoxy-[1,1′-biphenyl]-4-yl)methoxy)azetidine-1-carbonitrile]
- IC50: 0.01 to 0.1 µM

Structure (SMILES): N#CN1CC(OCc2ccc(Oc3ccccc3)cc2)C1 [Example 81, 3-((4-Phenoxybenzyl)oxy)azetidine-1-carbonitrile]
- IC50: 0.01 to 0.1 µM

Structure (SMILES): COc1cccc(-c2ccc(C3(COC4CN(C#N)C4)CC3)cc2)c1 [Example 82, 3-((1-(3′-Methoxy-[1,1′-biphenyl]-4-yl)cyclopropyl)methoxy)azetidine-1-carbonitrile]
- IC50: 0.01 to 0.1 µM

Structure (SMILES): COc1cccc(OC)c1-c1ccc(COC2CN(C#N)C2)cc1 [Example 83, 3-((2′,6′-Dimethoxy-[1,1′-biphenyl]-4-yl)methoxy)azetidine-1-carbonitrile]
- IC50: 0.01 to 0.1 µM

Structure (SMILES): N#CN1CC(OCc2ccc(-c3ccc4c(c3)OCCO4)cc2)C1 [Example 84, 3-((4-(2,3-Dihydrobenzo[b][1,4]dioxin-6-yl)benzyl)oxy)azetidine-1-carbonitrile]
- IC50: 0.01 to 0.1 µM

Structure (SMILES): N#CN1CC(OCc2ccc(-c3cccc(OCc4ccccc4)c3)cc2)C1 [Example 85, 3-((3′-(Benzyloxy)-[1,1′-biphenyl]-4-yl)methoxy)azetidine-1-carbonitrile]
- IC50: 0.01 to 0.1 µM

Structure (SMILES): N#CN1CC(COCc2ccc(-c3ccccc3)cc2)C1 [Example 86, 3-(([1,1′-Biphenyl]-4-ylmethoxy)methyl)azetidine-1-carbonitrile]
- IC50: 0.01 to 0.1 µM

Structure (SMILES): N#CN1CC(OCc2ccc(Oc3ccccc3)cc2-c2ccccc2)C1 [Example 87, 3-((5-Phenoxy-[1,1′-biphenyl]-2-yl)methoxy)azetidine-1-carbonitrile]
- IC50: 0.01 to 0.1 µM

Structure (SMILES): COc1ccccc1-c1cc(Oc2ccccc2)ccc1COC1CN(C#N)C1 [Example 88, 3-((2′-Methoxy-5-phenoxy-[1,1′-biphenyl]-2-yl)methoxy)azetidine-1-carbonitrile]
- IC50: 0.01 to 0.1 µM

Structure (SMILES): COc1cccc(-c2cc(Oc3ccccc3)ccc2COC2CN(C#N)C2)c1 [Example 89, 3-((3′-Methoxy-5-phenoxy-[1,1′-biphenyl]-2-yl)methoxy)azetidine-1-carbonitrile]
- IC50: 0.01 to 0.1 µM

Structure (SMILES): COc1ccc(-c2cc(Oc3ccccc3)ccc2COC2CN(C#N)C2)cc1 [Example 90, 3-((4′-Methoxy-5-phenoxy-[1,1′-biphenyl]-2-yl)methoxy)azetidine-1-carbonitrile]
- IC50: 0.01 to 0.1 µM

Structure (SMILES): COc1ncccc1-c1cc(Oc2ccccc2)ccc1COC1CN(C#N)C1 [Example 91, 3-((2-(2-Methoxypyridin-3-yl)-4-phenoxybenzyl)oxy)azetidine-1-carbonitrile]
- IC50: 0.01 to 0.1 µM

Structure (SMILES): N#Cc1ccc(-c2cc(Oc3ccccc3)ccc2COC2CN(C#N)C2)cc1 [Example 92, 3-((4′-Cyano-5-phenoxy-[1,1′-biphenyl]-2-yl)methoxy)azetidine-1-carbonitrile]
- IC50: 0.01 to 0.1 µM

Structure (SMILES): N#Cc1ccccc1-c1cc(Oc2ccccc2)ccc1COC1CN(C#N)C1 [Example 93, 3-((2′-Cyano-5-phenoxy-[1,1′-biphenyl]-2-yl)methoxy)azetidine-1-carbonitrile]
- IC50: 0.01 to 0.1 µM

Structure (SMILES): N#CN1CC(OCc2ccc(OC(c3ccc(F)cc3)c3ccc(F)cc3)cc2Br)C1 [Example 94, 3-((4-(Bis(4-fluorophenyl)methoxy)-2-bromobenzyl)oxy)azetidine-1-carbonitrile]
- IC50: 0.01 to 0.1 µM

Structure (SMILES): COc1cccc(-c2ccc(COC3(C)CN(C#N)C3)cc2)c1 [Example 95, 3-((3′-Methoxy-[1,1′-biphenyl]-4-yl)methoxy)-3-methylazetidine-1-carbonitrile]
- IC50: 0.01 to 0.1 µM

Structure (SMILES): COc1cccc(-c2ccc(COC3(c4ccccc4)CN(C#N)C3)cc2)c1 [Example 96, 3-((3′-Methoxy-[1,1′-biphenyl]-4-yl)methoxy)-3-phenylazetidine-1-carbonitrile]
- IC50: 0.01 to 0.1 µM

Structure (SMILES): N#CN1CC(OCc2ccc(-c3ccc4c(c3)OCO4)cc2)(c2ccccc2)C1 [Example 97, 3-((4-(Benzo[d][1,3]dioxol-5-yl)benzyl)oxy)-3-phenylazetidine-1-carbonitrile]
- IC50: 0.01 to 0.1 µM

Structure (SMILES): N#CN1CC(OCc2ccc(-c3ccc4c(c3)OCCO4)cc2)(c2ccccc2)C1 [Example 98, 3-((4-(2,3-Dihydrobenzo[b][1,4]dioxin-6-yl)benzyl)oxy)-3-phenylazetidine-1-carbonitrile]
- IC50: 0.01 to 0.1 µM

Structure (SMILES): N#CN1CC(OC(c2ccccc2)c2ccc(Br)cc2)C1 (stereo not shown) [Example 99, 3-((4-Bromophenyl)(phenyl)methoxy)azetidine-1-carbonitrile]
- IC50: 0.01 to 0.1 µM
